{
  "source": "paper PMC12676778",
  "about": "“Long-tailed class I myosins rely on tail-mediated phosphoinositide recognition for specific membrane recruitment” (Cell Communication and Signaling : CCS, 2025)",
  "key": {"Dictyostelium cells": {"system": "Dictyostelium cells", "experiment": "Myosin-1 localization in LY294002-treated (PI(3,4,5)P3-depleted) cells during endocytosis, confocal imaging", "assay_type": "cell-based, Dictyostelium discoideum", "details": "20 µM, starving cells", "method": "Microtubule depolymerization rates were quantified by measuring individual microtubule length reduction over time using Andor Solis software. Cellular localization of fluorescently tagged myosins and time-lapse imaging were performed on an inverted Leica TCS SP2 AOBS confocal microscope and a Leica DMi8 M system equipped with a 63×/1.4 NA oil immersion objective. Bright-field fluorescence microscopy employed an Olympus IX81 inverted microscope with a 60×/1.49 NA oil immersion lens (ApoN, Olympus). For imaging, cells were seeded on glass-bottom dishes (Ibidi), washed twice with MES buffer (20 mM MES, pH 6.8, 0.2 mM CaCl₂, 2 mM MgCl₂), and maintained in this buffer during acquisition. Phagocytic uptake assays were performed following a 2-hour starvation, after which heat-killed yeast particles were added and time-lapse images recorded. […] Image processing was performed using Leica Confocal Software, and quantitative analysis was conducted with ImageJ (NIH, Bethesda, MD, USA). Fluorescence intensity profiles were obtained by drawing lines along the regions of the cups, as illustrated in Fig. 5. Fluorescence data were normalized to the maximum intensity and interpolated using the interpolation algorithm in Origin to account for variations in cup length. Frames showing association of myosin-1C or myosin-1D with the cups were quantified. […]"}, "Myosin-1C-tail": {"target": "T1, Myosin-1C-tail (Dictyostelium discoideum, UniProt P42522)", "T1 construct": "gene myoC; GST and/or YFP tags kept; E. coli Rosetta pLysS", "T1 sequence (P42522 699-1182 limits assumed)": "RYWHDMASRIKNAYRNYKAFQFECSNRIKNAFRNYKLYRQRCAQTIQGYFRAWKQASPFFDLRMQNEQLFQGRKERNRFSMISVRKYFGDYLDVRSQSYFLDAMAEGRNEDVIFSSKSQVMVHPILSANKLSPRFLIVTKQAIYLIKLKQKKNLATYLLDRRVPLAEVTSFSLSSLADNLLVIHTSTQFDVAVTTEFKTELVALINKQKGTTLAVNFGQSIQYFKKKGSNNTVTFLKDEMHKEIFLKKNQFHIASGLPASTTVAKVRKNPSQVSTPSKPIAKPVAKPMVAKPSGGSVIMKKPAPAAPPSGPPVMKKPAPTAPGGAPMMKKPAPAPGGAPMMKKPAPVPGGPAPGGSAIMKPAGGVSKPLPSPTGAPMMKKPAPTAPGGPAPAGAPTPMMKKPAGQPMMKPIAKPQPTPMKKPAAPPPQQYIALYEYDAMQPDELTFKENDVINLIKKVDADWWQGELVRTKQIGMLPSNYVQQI", "experiment": "liposome co-sedimentation, YFP fluorescence of supernatant", "assay_type": "binding", "details": "PolyPIPosomes (5% PIP, 95% PE + PC), accessible lipid; 10 mM Tris pH 7.5, 100 mM NaCl, 1 mM EGTA, room temperature", "source_text": "liposome co-sedimentation, YFP fluorescence of supernatant on Myosin-1C-tail"}, "Myosin-1D-tail": {"target": "T2, Myosin-1D-tail (Dictyostelium discoideum, UniProt P34109)", "T2 construct": "gene myoD; tail fragment (TH1, SH3, TH2), residues 717-1113; N-terminal GST and/or C-terminal YFP tags kept; E. coli Rosetta pLysS", "T2 sequence (P34109 717-1109)": "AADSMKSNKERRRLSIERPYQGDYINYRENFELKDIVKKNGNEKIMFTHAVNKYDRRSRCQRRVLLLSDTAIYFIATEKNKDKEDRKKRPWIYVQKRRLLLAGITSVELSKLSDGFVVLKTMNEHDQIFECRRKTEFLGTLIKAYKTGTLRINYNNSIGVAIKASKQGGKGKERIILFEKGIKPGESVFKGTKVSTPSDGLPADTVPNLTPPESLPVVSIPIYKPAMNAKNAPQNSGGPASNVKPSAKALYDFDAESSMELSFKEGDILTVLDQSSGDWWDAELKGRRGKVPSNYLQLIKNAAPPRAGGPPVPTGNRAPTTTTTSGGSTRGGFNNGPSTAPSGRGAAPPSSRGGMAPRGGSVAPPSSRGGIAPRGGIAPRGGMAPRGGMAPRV", "experiment": "liposome co-sedimentation, YFP fluorescence of supernatant", "assay_type": "binding", "details": "PolyPIPosomes (5% PIP, 95% PE + PC), accessible lipid; 10 mM Tris pH 7.5, 100 mM NaCl, 1 mM EGTA, room temperature", "source_text": "liposome co-sedimentation, YFP fluorescence of supernatant on Myosin-1D-tail"}, "Myosin-1B-tail": {"target": "T3, Myosin-1B-tail (Dictyostelium discoideum, UniProt P34092)", "T3 construct": "gene myoB; tail fragment (TH1, TH2, SH3), residues 717-1111; N-terminal GST and/or C-terminal YFP tags kept; E. coli Rosetta pLysS", "T3 sequence (P34092 717-1111)": "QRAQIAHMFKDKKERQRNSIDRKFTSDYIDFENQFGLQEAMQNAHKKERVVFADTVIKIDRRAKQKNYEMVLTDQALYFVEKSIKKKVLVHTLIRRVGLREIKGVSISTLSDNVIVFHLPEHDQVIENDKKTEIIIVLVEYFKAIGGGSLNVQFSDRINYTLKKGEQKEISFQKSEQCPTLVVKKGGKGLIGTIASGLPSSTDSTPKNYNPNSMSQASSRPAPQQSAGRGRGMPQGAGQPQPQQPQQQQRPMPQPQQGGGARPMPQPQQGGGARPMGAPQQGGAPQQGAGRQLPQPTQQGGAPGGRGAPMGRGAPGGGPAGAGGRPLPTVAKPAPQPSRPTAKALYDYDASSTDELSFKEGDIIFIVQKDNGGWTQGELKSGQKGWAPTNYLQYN", "experiment": "liposome co-sedimentation, YFP fluorescence of supernatant", "assay_type": "binding", "details": "PolyPIPosomes (5% PIP, 95% PE + PC), accessible lipid; 10 mM Tris pH 7.5, 100 mM NaCl, 1 mM EGTA, room temperature", "source_text": "liposome co-sedimentation, YFP fluorescence of supernatant on Myosin-1B-tail"}},
  "data": [
    {"molecule": "O=c1cc(N2CCOCC2)oc2c(-c3ccccc3)cccc12", "note": "[LY294002]", "values": [
      {"measurement": "cortical actin dynamics and association of actin with the early endosome", "setting": "Dictyostelium cells", "value": "did not disrupt"},
      {"measurement": "localization of myosin-1C and myosin-1D with endocytic cups and endosomal membranes", "setting": "Dictyostelium cells", "value": "almost fully abolished"}
    ]},
    {"molecule": "PI(3)P", "values": [
      {"measurement": "Kd", "setting": "Myosin-1C-tail", "value": "4000 ± 300", "unit": "nM"},
      {"measurement": "Kd", "setting": "Myosin-1D-tail", "value": "1700 ± 300", "unit": "nM"}
    ]},
    {"molecule": "PI(3,4)P2", "values": [
      {"measurement": "Kd", "setting": "Myosin-1B-tail", "value": "2200 ± 400", "unit": "nM"}
    ]},
    {"molecule": "PI(3,4,5)P3", "values": [
      {"measurement": "Kd", "setting": "Myosin-1C-tail", "value": "2500 ± 300", "unit": "nM"},
      {"measurement": "Kd", "setting": "Myosin-1D-tail", "value": "300 ± 40", "unit": "nM"}
    ]},
    {"molecule": "PI(3,5)P2", "values": [
      {"measurement": "Kd", "setting": "Myosin-1C-tail", "value": "600 ± 100", "unit": "nM"},
      {"measurement": "Kd", "setting": "Myosin-1D-tail", "value": "800 ± 100", "unit": "nM"}
    ]},
    {"molecule": "PI(4)P", "values": [
      {"measurement": "Kd", "setting": "Myosin-1C-tail", "value": "400 ± 100", "unit": "nM"},
      {"measurement": "Kd", "setting": "Myosin-1D-tail", "value": "1200 ± 200", "unit": "nM"}
    ]},
    {"molecule": "PI(4,5)P2", "values": [
      {"measurement": "Kd", "setting": "Myosin-1D-tail", "value": "700 ± 100", "unit": "nM"}
    ]},
    {"molecule": "PI(5)P", "values": [
      {"measurement": "Kd", "setting": "Myosin-1C-tail", "value": "500 ± 100", "unit": "nM"},
      {"measurement": "Kd", "setting": "Myosin-1B-tail", "value": "7700 ± 600", "unit": "nM"}
    ]}
  ]
}
